In patent US11214803B2, “Modulators of YAP1 expression” (Ionis Pharmaceuticals, Inc., priority 2019, dated 2022):
Strand notation (5' to 3'): a small letter for the sugar, then the base; units joined by * are phosphorothioate-linked, units joined directly phosphodiester-linked; [ ] holds rarer units or linkages, { } end groups; capitals alone tell only the bases. e = 2'-O-(2-methoxyethyl) (MOE); k = constrained ethyl (cEt); [5mC] = 5-methylcytosine; d = 2'-deoxy (DNA); m = 2'-O-methyl

Test system: Yap1 mRNA
Assay: Dose-dependent inhibition of human Yap1 in SNU-449 cells (Example 9, RTS36584)
Assay type: cell-based
Conditions: free uptake; for % UTC (Yap1 mRNA): approximately 48 hours; for IC50: linear regression on a log/linear plot
Method: Modified oligonucleotides described in the studies above were tested at various doses in SNU-449 cells. Cultured SNU-449 cells at a density of 10,000 cells per well were treated using free uptake with modified oligonucleotides diluted to concentrations described in the tables below. After approximately 48 hours, Yap1 mRNA levels were measured as previously described using the Human Yap1 primer-probe set RTS36584. Yap1 mRNA levels were normalized to total RNA content, as measured by RIBOGREEN®. Results are presented in the tables below as percent control of the amount of Yap1 mRNA relative to untreated control cells (% UTC). IC50s were calculated using a linear regression on a log/linear plot of the data in excel.

Row | Substance | % UTC (Yap1 mRNA) (31.3 nM) [% UTC] | % UTC (Yap1 mRNA) (125.0 nM) [% UTC] | % UTC (Yap1 mRNA) (500.0 nM) [% UTC] | % UTC (Yap1 mRNA) (2000.00 nM) [% UTC] | IC50 [nM]
1 | 1198638 (kA*kG*dA*dG*dT*dA*dT*dG*dT*dG*dG*d[5mC]*kA*eA*kT*eA; antisense) [compound 1198638] | 70 | 42 | 13 | 4 | 100
2 | 1198724 (kA*eG*kA*dG*dT*dA*dT*dG*dT*dG*dG*d[5mC]*eA*eA*kT*kA; antisense) [compound 1198724] | 56 | 25 | 8 | 3 | < 30
3 | 1198412 (kT*dT*dA*dG*dG*dA*dT*dG*d[5mC]*dA*dT*kG*eG*kT*eT*kT; antisense) [compound 1198412] | 73 | 54 | 33 | 15 | 200
4 | 1198288 (kG*kA*kA*dA*dT*dT*dG*dT*d[5mC]*dT*d[5mC]*dA*kT*eG*k[5mC]*e[5mC]; antisense) [compound 1198288] | 77 | 43 | 17 | 7 | 100
5 | 1198380 (kA*dG*dA*dG*dT*dA*dT*dG*dT*dG*dG*k[5mC]*eA*kA*eT*kA; antisense) [compound 1198380] | 72 | 55 | 27 | 11 | 100
6 | 1198353 (kA*kG*kT*dG*dT*dA*dT*dG*dT*d[5mC]*dA*dG*kA*eA*kG*eA; antisense) [compound 1198353] | 60 | 30 | 10 | 4 | 40
7 | 1198814 (kA*kG*dA*dG*dT*dA*dT*dG*dT*dG*dG*k[5mC]*eA*kA*eT*kA) [compound 1198814] | 63 | 25 | 6 | 3 | 40
8 | 1198438 (kT*dG*dT*dA*dT*dG*dT*d[5mC]*dA*dG*dA*kA*eG*kA*eG*kT) [compound 1198438] | 62 | 28 | 7 | 2 | 40
9 | 1198382 (kT*dT*dA*dG*dA*dG*dT*dA*dT*dG*dT*kG*eG*k[5mC]*eA*kA; antisense) [compound 1198382] | 77 | 56 | 36 | 18 | 200
10 | 1197177 (kA*kT*kT*dG*dT*d[5mC]*dT*d[5mC]*dA*dT*dG*d[5mC]*d[5mC]*kT*kT*kA; antisense) [compound 1197177] | 56 | 29 | 8 | 2 | 30
11 | 1198203 (kG*kG*dA*dA*dA*dT*dT*dG*dT*d[5mC]*dT*e[5mC]*eA*eT*kG*k[5mC]) [compound 1198203] | 71 | 51 | 25 | 11 | 100
12 | 1197235 (kA*kT*kT*dA*mG*dA*dG*dT*dA*dT*dG*dT*dG*kG*k[5mC]*kA; antisense) [compound 1197235] | 64 | 36 | 16 | 5 | 100
13 | 1198398 (G_{ks}^{m}C_{ds}A_{ds}C_{ds}T_{ds}T_{ds}T_{ds}T_{ds}A_{ds}^{m}C_{ds}A_{ds}T_{ks}T_{es}A_{ks}G_{es}G_{k}; cEt, 2'-MOE, 5-methylcytosine, phosphorothioate modifications, as printed in the source, key not given here) [compound 1198398] | 73 | 55 | 33 | 18 | 200
14 | 1197176 (kT*kG*kT*d[5mC]*dT*d[5mC]*dA*dT*dG*d[5mC]*d[5mC]*dT*dT*kA*kT*kA; antisense) [compound 1197176] | 66 | 37 | 19 | 6 | 100
15 | 1197217 (kT*kT*kA*dA*dA*dG*dT*dG*dT*dA*dT*dG*dT*k[5mC]*kA*kG) [compound 1197217] | 66 | 39 | 14 | 4 | 100
16 | 1198935 (kG*kA*dT*dT*dT*dA*dG*dG*dA*dT*dG*k[5mC]*dA*kT*dG*kG; antisense) [compound 1198935] | 50 | 46 | 23 | 11 | 40
17 | 1198877 (kT*kT*dA*dA*dA*dG*dT*dG*dT*dA*dT*kG*eT*k[5mC]*eA*kG; antisense) [compound 1198877] | 62 | 32 | 13 | 5 | 50
18 | 1198788 (kA*eA*kG*dT*dG*dT*dA*dT*dG*dT*d[5mC]*dA*eG*eA*kA*kG) [compound 1198788] | 64 | 30 | 7 | 2 | 100
19 | 1198470 (kT*kA*dT*dT*dA*dG*dA*dG*dT*dA*dT*eG*kT*eG*kG*e[5mC]; antisense) [compound 1198470] | 73 | 41 | 18 | 9 | 100
20 | 1198656 (kG*k[5mC]*dA*d[5mC]*dT*dT*dT*dT*dA*d[5mC]*dA*dT*kT*eA*kG*eG; antisense) [compound 1198656] | 55 | 22 | 8 | 3 | < 30
21 | 1009325 (kA*kG*kA*dG*dT*dA*dT*dG*dT*dG*dG*d[5mC]*dA*kA*kT*kA; antisense) [compound 1009325] | 59 | 36 | 16 | 4 | 100
22 | 1198354 (kA*kA*kG*dT*dG*dT*dA*dT*dG*dT*d[5mC]*dA*kG*eA*kA*eG) [compound 1198354] | 66 | 24 | 5 | 1 | 50
23 | 1198805 (kA*kT*dT*dG*dT*d[5mC]*dT*d[5mC]*dA*dT*dG*k[5mC]*e[5mC]*kT*eT*kA; antisense) [compound 1198805] | 61 | 42 | 20 | 7 | 100
24 | 1198787 (kA*eG*kT*dG*dT*dA*dT*dG*dT*d[5mC]*dA*dG*eA*eA*kG*kA; antisense) [compound 1198787] | 68 | 21 | 6 | 1 | 50
25 | 1198294 (kA*kG*kA*dG*dT*dA*dT*dG*dT*dG*dG*d[5mC]*kA*eA*kT*eA; antisense) [compound 1198294] | 59 | 33 | 14 | 5 | 50
